Assay results from ChEMBL document CHEMBL4483862, “Open-source discovery of chemical leads for next-generation chemoprotective antimalarials” (2018).

System: Plasmodium berghei
Test: Luciferase/luciferin-expressing antifolate-resistant parasites were used to infect a culture of HepG2 cells that were pre-incubated with compounds. Infected hepatocytes emit light due to the luciferase reaction. Assay results are presented as the percent inhibition of light emission compared to control. […]
Assay type: functional
Settings: sporozoite; for IC90: read-out: LUCIFERASE INFECTION ASSAY - IC90

Structure (SMILES)	IC90 [µM]	also measured
Clc1nc(-c2ccccn2)nc2scc(-c3ccccc3)c12	1.68	IC50 (HEPG2TOX_HILL_SLOPE 0.933, HEPG2TOX_R_SQUARED 0.89, PBLUC_HILL_SLOPE 8.14, PBLUC_R_SQUARED 0.197, read-out: LUCIFERASE INFECTION ASSAY - IC50): 1.28 µM
CN(C)c1ccc(-c2cnc3cnc(-c4ccc(O)cc4)cn23)cc1	1.76	IC50 (HEPG2TOX_HILL_SLOPE 0.921, HEPG2TOX_R_SQUARED 0.948, PBLUC_HILL_SLOPE 0.805, PBLUC_R_SQUARED 0.912, read-out: LUCIFERASE INFECTION ASSAY - IC50): 0.115 µM
Cn1ccc2cc(-c3cn4c(-c5cccc(CO)c5)cnc4cn3)ccc21	1.22	IC50 (HEPG2TOX_HILL_SLOPE 0.928, HEPG2TOX_R_SQUARED 0.91, PBLUC_HILL_SLOPE 2.22, PBLUC_R_SQUARED 0.697, read-out: LUCIFERASE INFECTION ASSAY - IC50): 0.452 µM
OCCCNc1ccc2ncc(-c3cccc(C(F)(F)F)c3)n2n1	1.21	IC50 (HEPG2TOX_HILL_SLOPE 0.946, HEPG2TOX_R_SQUARED 0.925, PBLUC_HILL_SLOPE 15.6, PBLUC_R_SQUARED 0.717, read-out: LUCIFERASE INFECTION ASSAY - IC50): 1.05 µM
CNc1snc(C)c1C(=O)OCc1cc(C(=O)OC)c(C)o1	2.41	IC50 (HEPG2TOX_HILL_SLOPE 0.962, HEPG2TOX_R_SQUARED 0.934, PBLUC_HILL_SLOPE 25, PBLUC_R_SQUARED 0.565, read-out: LUCIFERASE INFECTION ASSAY - IC50): 2.2 µM
O=C1Nc2ccc(F)cc2/C1=N/NC(=S)NC1CC2C=CC1C2 (configuration not stated)	1.38	IC50 (HEPG2TOX_HILL_SLOPE 0.956, HEPG2TOX_R_SQUARED 0.854, PBLUC_HILL_SLOPE 4.64, PBLUC_R_SQUARED 0.779, read-out: LUCIFERASE INFECTION ASSAY - IC50): 0.86 µM
O=C(NNC(=O)c1ccccc1OCC1CCCO1)c1cc2ccccc2cc1O (configuration not stated)	4.01	IC50 (HEPG2TOX_HILL_SLOPE 0.895, HEPG2TOX_R_SQUARED 0.962, PBLUC_HILL_SLOPE 14.5, PBLUC_R_SQUARED 0.545, read-out: LUCIFERASE INFECTION ASSAY - IC50): 3.45 µM
Fc1ccc(NC(=S)N2CCN(c3ncnc4sccc34)CC2)c(F)c1	2.97	IC50 (HEPG2TOX_HILL_SLOPE 0.955, HEPG2TOX_R_SQUARED 0.941, PBLUC_HILL_SLOPE 17.3, PBLUC_R_SQUARED 0.219, read-out: LUCIFERASE INFECTION ASSAY - IC50): 2.62 µM
CCOC(=O)c1[nH]c(C)c(C(=O)OCC(=O)Nc2ccc(Cl)cn2)c1C	2.91	IC50 (HEPG2TOX_HILL_SLOPE 0.952, HEPG2TOX_R_SQUARED 0.987, PBLUC_HILL_SLOPE 2.41, PBLUC_R_SQUARED 0.555, read-out: LUCIFERASE INFECTION ASSAY - IC50): 1.17 µM
O=C1CCCN1c1ccc(S(=O)(=O)Oc2ccc(Cl)cc2)cc1	2.91	IC50 (HEPG2TOX_HILL_SLOPE 0.952, HEPG2TOX_R_SQUARED 0.945, PBLUC_HILL_SLOPE 2.14, PBLUC_R_SQUARED 0.73, read-out: LUCIFERASE INFECTION ASSAY - IC50): 1.04 µM
CCc1ccc(-n2nnnc2-c2cnc(N)nc2-c2ccccc2)cc1	1.61	IC50 (HEPG2TOX_HILL_SLOPE 0.931, HEPG2TOX_R_SQUARED 0.943, PBLUC_HILL_SLOPE 1.76, PBLUC_R_SQUARED 0.648, read-out: LUCIFERASE INFECTION ASSAY - IC50): 0.463 µM
CCOc1cccc(-c2cn3c(-c4ccc(CO)cc4)cnc3cn2)c1	0.828	IC50 (HEPG2TOX_HILL_SLOPE 0.91, HEPG2TOX_R_SQUARED 0.879, PBLUC_HILL_SLOPE 2.96, PBLUC_R_SQUARED 0.698, read-out: LUCIFERASE INFECTION ASSAY - IC50): 0.395 µM
CCOc1ccc(C(=O)CN(C#N)C(=O)c2ccccc2)cc1	0.758	IC50 (HEPG2TOX_HILL_SLOPE 0.95, HEPG2TOX_R_SQUARED 0.917, PBLUC_HILL_SLOPE 159, PBLUC_R_SQUARED 0.609, read-out: LUCIFERASE INFECTION ASSAY - IC50): 0.747 µM
CC(C)Cn1c(N)c(C(=O)CSc2nc(=O)c3c4c(sc3[nH]2)CCCC4)c(=O)n(C)c1=O	> 10	IC50 (HEPG2TOX_HILL_SLOPE 0.911, HEPG2TOX_R_SQUARED 0.885, PBLUC_HILL_SLOPE 2, PBLUC_R_SQUARED 0.249, read-out: LUCIFERASE INFECTION ASSAY - IC50): 5.58 µM
CC(C)c1cc(C(=O)Nc2nnc3ccccn23)c2cnn(C(C)C)c2n1	4.31	IC50 (HEPG2TOX_HILL_SLOPE 0.96, HEPG2TOX_R_SQUARED 0.828, PBLUC_HILL_SLOPE 9.22, PBLUC_R_SQUARED 0.235, read-out: LUCIFERASE INFECTION ASSAY - IC50): 3.4 µM
CC1CCC2(CC1)NC(=O)N(Cc1ccc(C(=O)Nc3ccccc3)cc1)C2=O (configuration not stated)	> 10	IC50 (HEPG2TOX_HILL_SLOPE 0.925, HEPG2TOX_R_SQUARED 0.33, PBLUC_HILL_SLOPE 1.44, PBLUC_R_SQUARED 0.482, read-out: LUCIFERASE INFECTION ASSAY - IC50): 2.56 µM

Structure (SMILES)	IC90 [µM]	also measured
N#Cc1c(Cl)cccc1N1CCC(C#N)CC1	> 13.4	IC50 (HEPG2TOX_HILL_SLOPE 0.959, HEPG2TOX_R_SQUARED 0.904, PBLUC_HILL_SLOPE 1.25, PBLUC_R_SQUARED 0.0637, read-out: LUCIFERASE INFECTION ASSAY - IC50): 6.33 µM
COc1ccc2[nH]c(C(=O)Nc3ccc(F)cc3)c(C)c2c1	4.28	IC50 (HEPG2TOX_HILL_SLOPE 0.946, HEPG2TOX_R_SQUARED 0.313, PBLUC_HILL_SLOPE 15.5, PBLUC_R_SQUARED 0.583, read-out: LUCIFERASE INFECTION ASSAY - IC50): 3.72 µM
Cc1ccc(O)c(C(=O)c2cnc3cc4c(cc3c2)OCCO4)c1	0.81	IC50 (HEPG2TOX_HILL_SLOPE 0.914, HEPG2TOX_R_SQUARED 0.945, PBLUC_HILL_SLOPE 1.42, PBLUC_R_SQUARED 0.804, read-out: LUCIFERASE INFECTION ASSAY - IC50): 0.172 µM
Cc1cc(C(=O)C(C)OC(=O)c2ccc(S(=O)(=O)NCc3ccco3)cc2)c(C)n1-c1ccc(Cl)cc1 (configuration not stated)	> 10	IC50 (HEPG2TOX_HILL_SLOPE 0.938, HEPG2TOX_R_SQUARED 0.54, PBLUC_HILL_SLOPE 4.63, PBLUC_R_SQUARED 0.33, read-out: LUCIFERASE INFECTION ASSAY - IC50): 7.49 µM
O=S(=O)(NCCNc1ncnc2ccccc12)c1cccc(Cl)c1	> 10	IC50 (HEPG2TOX_HILL_SLOPE 0.939, HEPG2TOX_R_SQUARED 0.791, read-out: LUCIFERASE INFECTION ASSAY - IC50): > 10 µM
CCN(CC)S(=O)(=O)c1cccc(-c2nnc(SCc3nc(=O)c4cccc(C)c4[nH]3)n2CC(C)C)c1	> 10	IC50 (HEPG2TOX_HILL_SLOPE 0.901, HEPG2TOX_R_SQUARED 0.0979, read-out: LUCIFERASE INFECTION ASSAY - IC50): > 10 µM
CCOc1ccc(CN(C)CC(=O)NCCc2ccc(S(N)(=O)=O)cc2)cc1	> 10	IC50 (HEPG2TOX_HILL_SLOPE 0.961, HEPG2TOX_R_SQUARED 0.961, PBLUC_HILL_SLOPE 1.57, PBLUC_R_SQUARED 0.525, read-out: LUCIFERASE INFECTION ASSAY - IC50): 3.65 µM
C=CCN(c1ccccc1)S(=O)(=O)c1cc(C(=O)NCC2(N3CCCCC3)CCCCC2)ccc1Cl	> 10	IC50 (HEPG2TOX_HILL_SLOPE 0.94, HEPG2TOX_R_SQUARED 0.4, PBLUC_HILL_SLOPE 1.67, PBLUC_R_SQUARED 0.0797, read-out: LUCIFERASE INFECTION ASSAY - IC50): 5.22 µM
CN(C)c1ccccc1-c1cnc2sc(NCCc3ccncc3)nn12	> 9.05	IC50 (HEPG2TOX_HILL_SLOPE 0.921, HEPG2TOX_R_SQUARED 0.497, read-out: LUCIFERASE INFECTION ASSAY - IC50): > 9.05 µM
Cc1cc(C=C2Sc3ccccc3N2C)cc(C)[n+]1C(C)C1CC2CCC1C2 (configuration not stated)	0.589	IC50 (HEPG2TOX_HILL_SLOPE 0.905, HEPG2TOX_R_SQUARED 0.888, PBLUC_HILL_SLOPE 1.95, PBLUC_R_SQUARED 0.822, read-out: LUCIFERASE INFECTION ASSAY - IC50): 0.19 µM
CC(=O)c1ccccc1OCCOC(=O)/C(C#N)=C/c1cc(C)n(CCC(C)C)c1C	1.72	IC50 (HEPG2TOX_HILL_SLOPE 0.948, HEPG2TOX_R_SQUARED 0.676, PBLUC_HILL_SLOPE 14.8, PBLUC_R_SQUARED 0.615, read-out: LUCIFERASE INFECTION ASSAY - IC50): 1.48 µM
CN(C)c1nc2cc(C(=O)Nc3ccccc3OC(F)F)sc2n1-c1ccccc1	2.47	IC50 (HEPG2TOX_HILL_SLOPE 0.955, HEPG2TOX_R_SQUARED 0.898, PBLUC_HILL_SLOPE 1.96, PBLUC_R_SQUARED 0.521, read-out: LUCIFERASE INFECTION ASSAY - IC50): 0.803 µM
CC(=O)Nc1ccc(Nc2nc3cc(S(=O)(=O)Nc4cccc(Cl)c4)ccc3o2)cc1	9.97	IC50 (HEPG2TOX_HILL_SLOPE 0.957, HEPG2TOX_R_SQUARED 0.862, PBLUC_HILL_SLOPE 2.24, PBLUC_R_SQUARED 0.74, read-out: LUCIFERASE INFECTION ASSAY - IC50): 3.74 µM
C1=C(c2c[nH]c3ncccc23)CCN(c2ncnc3n[nH]cc23)C1	> 10	IC50 (HEPG2TOX_HILL_SLOPE 0.924, HEPG2TOX_R_SQUARED 0.995, PBLUC_HILL_SLOPE 2.5, PBLUC_R_SQUARED 0.123, read-out: LUCIFERASE INFECTION ASSAY - IC50): 7.5 µM
O=C(Nc1nc2ccccn2c1C(=O)NC1CCCC1)c1ccc(Cl)cc1	1.21	IC50 (HEPG2TOX_HILL_SLOPE 0.927, HEPG2TOX_R_SQUARED 0.795, PBLUC_HILL_SLOPE 2.2, PBLUC_R_SQUARED 0.668, read-out: LUCIFERASE INFECTION ASSAY - IC50): 0.447 µM
